From article PMC12084297, “Cytoplasmic connexin43-microtubule interactions promote glioblastoma stem-like cell maintenance and tumorigenicity” (Cell Death & Disease, 2025)

Key:
VTC-001 GSCs = test: MTS viability, VTC-001 GSCs; type: cell-based, human; settings: VTC-001 adherent GSCs, TMZ 50 μM, 4 days
Method: (§1) Cells were plated in 96-well plates (2000–5000 cells per well) and treated the following day with TMZ (10, 50, or 100 μM), antennapedia, JM2-scrambled, or JM2 (10, 50, or 100 μM). After 4 days, cell viability was monitored following addition of MTS reagent (Promega) according to manufacturer’s instructions. The absorbance at 490 nm was measured using a SpectraMax i3 or iD3 microplate reader (Molecular Devices). For the caspase 3/7 activity assay, cells were plated in 96-well plates (2000 cells per well) and treated with TMZ or peptides as described above. The activity of caspase 3/7 was measured after 48 h using the Caspase-Glo® 3/7 assay (Promega) following the manufacturer’s instructions. Fold change of caspase 3/7 activity was defined as the ratio of caspase 3/7 luminescence in treated cells compared to controls.

VTC-037 GSCs = test: MTS viability, VTC-037 GSCs; type: cell-based, human; settings: VTC-037 adherent GSCs, TMZ 50 μM, 4 days
Method: as §1

VTC-034 GSCs = test: Caspase 3/7 activity, VTC-034 GSCs; type: cell-based, human; settings: VTC-034 adherent GSCs, 10, 50 or 100 μM, 48 h, Caspase-Glo 3/7
Method: as §1

[1] = system: newly diagnosed GBM patients; settings: surgical resection, radiotherapy, and chemotherapy with temozolomide, ref [1]-[3]; cited from earlier work
Text: Glioblastoma (GBM) is a highly malignant and lethal cancer of the central nervous system. The current multimodal therapy for newly diagnosed GBM patients includes surgical resection, radiotherapy, and chemotherapy with temozolomide (TMZ), conferring a median survival of only 14.6 months, with recent results from phase 3 clinical trials showing an extension up to 20 months, although using more stringent inclusion criteria that limit generalizability.

Cn1nnc2c(C(N)=O)ncn2c1=O [TMZ, temozolomide, reference compound]
GSC viability with TMZ alone (MTS) (VTC-001 GSCs): resistant to TMZ treatment | GSC viability with TMZ alone (MTS) (VTC-037 GSCs): resistant to TMZ treatment | Apoptosis induction (caspase 3/7 activity) (VTC-034 GSCs): inefficient in inducing apoptosis | Median survival [1]: 14.6 months
